Results: US20060293315A1, “Intermediates of novel heterocyclic compounds having antibacterial activity and process for their preparation” (Dr. Reddy's Laboratories Ltd., priority 2001, published 2006)
Each block holds one compound with its values, some of them ahead of it.

melting point: 220 °C
SMILES: CC(=O)NC[C@H]1CN(c2ccc(N3CCSC3=S)c(F)c2)C(=O)O1 [Example 76]

melting point: 171 °C
SMILES: CC(=O)NC[C@H]1CN(c2ccc(N3CCN(C)C3=S)c(F)c2)C(=O)O1 [Example 77]

melting point: 120 °C
SMILES: CC(=O)NC[C@H]1CN(c2ccc(N3CCOC3=O)cc2F)C(=O)O1 [Example 85]

melting point: 219 °C
SMILES: CC(=O)NC[C@H]1CN(c2cc(F)c(N3CCOC3=O)c(F)c2)C(=O)O1 [Example 86]

melting point: 224 °C
SMILES: CCC(=O)NC[C@H]1CN(c2cc(F)c(N3CCOC3=O)c(F)c2)C(=O)O1 [Example 87]

melting point: 230 °C
SMILES: CC(=O)NC[C@H]1CN(c2ccc(N3CC(=O)N(C)C3)c(F)c2)C(=O)O1 [Example 90]

melting point: 182 °C
SMILES: CC(=O)NC[C@H]1CN(c2ccc(N3CCN(C)C3=O)c(F)c2)C(=O)O1 [Example 92]

melting point: 171 °C
SMILES: CC(=S)NC[C@H]1CN(c2ccc(N3CCOC3=O)c(F)c2)C(=O)O1 [Example 98]

melting point: 165 °C
SMILES: O=C1O[C@@H](CNC(=S)CC(F)(F)F)CN1c1ccc(N2CCOC2=O)c(F)c1 [Example 99]

melting point: 111 °C
SMILES: CC(=S)NC[C@H]1CN(c2ccc(N3CCN(C)C3=S)c(F)c2)C(=O)O1 [Example 100]

melting point: 137 °C
SMILES: CC(=S)NC[C@H]1CN(c2ccc(-n3c(=O)oc4ccccc43)c(F)c2)C(=O)O1 [Example 101]

melting point: 154 °C
SMILES: CC(=S)NC[C@H]1CN(c2ccc(N3CCOC3=O)c(C(F)(F)F)c2)C(=O)O1 [Example 102]

melting point: 108 °C
SMILES: CC(=S)NC[C@H]1CN(c2cc(F)c(N3CCOC3=O)c(F)c2)C(=O)O1 [Example 103]

melting point: 168 °C
SMILES: CCC(=S)NC[C@H]1CN(c2cc(F)c(N3CCOC3=O)c(F)c2)C(=O)O1 [Example 104]

melting point: 195 °C
SMILES: CC(=S)NC[C@H]1CN(c2ccc(N3CCOC3=O)cc2)C(=O)O1 [Example 105]

melting point: 165 °C
SMILES: CC(=S)NC[C@H]1CN(c2ccc(N3CCN(c4ccccc4)C3=O)c(F)c2)C(=O)O1 [Example 106]

melting point: 148 to 150 °C
SMILES: CC(=S)NC[C@H]1CN(c2cc(F)c(N3CNC(=O)C3)c(F)c2)C(=O)O1 [Example 108]

melting point: 153 °C
SMILES: COC(=O)NC[C@H]1CN(c2ccc(N3CCOC3=O)c(F)c2)C(=O)O1 [Example 109]

melting point: 157 °C
SMILES: COC(=O)NC[C@H]1CN(c2cc(F)c(N3CCOC3=O)c(F)c2)C(=O)O1 [Example 111]

melting point: 226 °C
SMILES: COC(=O)NC[C@H]1CN(c2ccc(N3CC(=O)N(C)C3)c(F)c2)C(=O)O1 [Example 113]

melting point: 147 °C
SMILES: CSC(=S)NC[C@H]1CN(c2cc(F)c(N3CCOC3=O)c(F)c2)C(=O)O1 [Example 115]

melting point: 137 °C
SMILES: COC(=S)NC[C@H]1CN(c2ccc(N3CCOC3=O)c(F)c2)C(=O)O1 [Example 119]

melting point: 208 °C
SMILES: CCOC(=S)NC[C@H]1CN(c2ccc(N3CCOC3=O)c(F)c2)C(=O)O1 [Example 120]

melting point: 197 °C
SMILES: COC(=S)NC[C@H]1CN(c2ccc(N3CCOC3=O)c(F)c2)C(=O)O1 [Example 123]

melting point: 182 °C
SMILES: COC(=S)NC[C@H]1CN(c2cc(F)c(N3CCOC3=O)c(F)c2)C(=O)O1 [Example 130]

melting point: 218 °C
SMILES: COC(=S)NC[C@H]1CN(c2ccc(N3CC(=O)N(C)C3)c(F)c2)C(=O)O1 [Example 141]

melting point: 146 °C
SMILES: COC(=S)NC[C@H]1CN(c2ccc(N3CCN(C)C3=O)c(F)c2)C(=O)O1 [Example 144]

The next lines start with the compound.

SMILES: NC[C@H]1CN(c2ccc(N3CCOC3=O)c(F)c2)C(=O)O1 [Example 53]
melting point: 147 °C

SMILES: NC[C@H]1CN(c2ccc(N3CCOC3=O)cc2)C(=O)O1 [Example 59]
melting point: 189 to 191 °C

SMILES: CCC(=O)NC[C@H]1CN(c2ccc(N3CCOC3=O)c(F)c2)C(=O)O1 [Example 67]
melting point: 203 °C

SMILES: CCCC(=O)NC[C@H]1CN(c2ccc(N3CCOC3=O)c(F)c2)C(=O)O1 [Example 68]
melting point: 211 °C

SMILES: CCCCC(=O)NC[C@H]1CN(c2ccc(N3CCOC3=O)c(F)c2)C(=O)O1 [Example 69]
melting point: 187 °C

SMILES: CCCCCCC(=O)NC[C@H]1CN(c2ccc(N3CCOC3=O)c(F)c2)C(=O)O1 [Example 70]
melting point: 131 °C

SMILES: C=CC(=O)NC[C@H]1CN(c2ccc(N3CCOC3=O)c(F)c2)C(=O)O1 [Example 71]
melting point: 196 °C

SMILES: O=C1O[C@@H](CNC(=O)C(F)(F)F)CN1c1ccc(N2CCOC2=O)c(F)c1 [Example 72]
melting point: 194 °C

SMILES: CCOC(=O)C(=O)NC[C@H]1CN(c2ccc(N3CCOC3=O)c(F)c2)C(=O)O1 [Example 73]
melting point: 160 °C

SMILES: CC(=O)NC[C@H]1CN(c2ccc(-n3c(=O)oc4cc(C)ccc43)c(F)c2)C(=O)O1 [Example 79]
melting point: 213 °C

SMILES: CC(=O)NC[C@H]1CN(c2ccc(-n3c(=O)oc4ccc(C)cc43)c(F)c2)C(=O)O1 [Example 80]
melting point: 202 °C

SMILES: CC(=O)NC[C@H]1CN(c2ccc(N3CCOC3=O)c(C(F)(F)F)c2)C(=O)O1 [Example 81]
melting point: 143 °C

SMILES: CCC(=O)NC[C@H]1CN(c2ccc(N3CCOC3=O)c(C(F)(F)F)c2)C(=O)O1 [Example 82]
melting point: 143 °C

SMILES: C=CC(=O)NC[C@H]1CN(c2ccc(N3CCOC3=O)c(C(F)(F)F)c2)C(=O)O1 [Example 84]
melting point: 191 °C

SMILES: CC(=O)NC[C@H]1CN(c2ccc(N3CCOC3=O)cc2)C(=O)O1 [Example 88]
melting point: 231 °C

SMILES: CC(=O)NC[C@H]1CN(c2ccc(-n3c(=O)oc4ccccc43)cc2)C(=O)O1 [Example 89]
melting point: 229 °C

SMILES: CC(=O)NC[C@H]1CN(c2ccc(N3CCN(C)C3=O)cc2)C(=O)O1 [Example 93]
melting point: 217 °C

SMILES: CC(=O)NC[C@H]1CN(c2ccc(N3CCN(Cc4ccccc4)C3=O)cc2)C(=O)O1 [Example 94]
melting point: 204 °C

SMILES: CC(=O)NC[C@H]1CN(c2ccc(N3CCN(c4ccccc4)C3=O)c(F)c2)C(=O)O1 [Example 95]
melting point: 182 °C

SMILES: CC(=O)NC[C@H]1CN(c2ccc(N3CCN(c4ccc(F)cc4)C3=O)c(F)c2)C(=O)O1 [Example 96]
melting point: 194 °C

SMILES: COC(=O)NC[C@H]1CN(c2ccc(N3CCOC3=O)c(C(F)(F)F)c2)C(=O)O1 [Example 110]
melting point: 148 °C

SMILES: COC(=O)NC[C@H]1CN(c2ccc(N3CCOC3=O)cc2)C(=O)O1 [Example 112]
melting point: 195 °C

SMILES: CSC(=S)NC[C@H]1CN(c2ccc(N3CCOC3=O)cc2)C(=O)O1 [Example 114]
melting point: 161 °C

SMILES: O=C1O[C@@H](CNC(=S)OC(=O)C(F)(F)F)CN1c1ccc(N2CCOC2=O)c(F)c1 [Example 121]
melting point: 184 °C

SMILES: O=C1OCCN1c1ccc(N2C[C@H](CNC(=S)OC3CCCCC3)OC2=O)cc1 [Example 122]
melting point: 153 °C

SMILES: CCOC(=S)NC[C@H]1CN(c2ccc(N3CCN(C)C3=S)c(F)c2)C(=O)O1 [Example 124]
melting point: 197 °C

SMILES: CCCOC(=S)NC[C@H]1CN(c2ccc(N3CCN(C)C3=S)c(F)c2)C(=O)O1 [Example 125]
melting point: > 200 °C

SMILES: COC(=S)NC[C@H]1CN(c2ccc(N3CCN(C)C3=S)c(F)c2)C(=O)O1 [Example 126]
melting point: 179 °C

SMILES: CC(C)OC(=S)NC[C@H]1CN(c2ccc(N3CCN(C)C3=S)c(F)c2)C(=O)O1 [Example 127]
melting point: 183 °C

SMILES: COC(=S)NC[C@H]1CN(c2ccc(N3CCOC3=O)c(C(F)(F)F)c2)C(=O)O1 [Example 128]
melting point: 146 °C

SMILES: CCOC(=S)NC[C@H]1CN(c2ccc(N3CCOC3=O)c(C(F)(F)F)c2)C(=O)O1 [Example 129]
melting point: 157 °C

SMILES: COC(=S)NC[C@H]1CN(c2ccc(N3CCOC3=O)cc2)C(=O)O1 [Example 131]
melting point: 153 °C

SMILES: CCOC(=S)NC[C@H]1CN(c2ccc(N3CCOC3=O)cc2)C(=O)O1 [Example 132]
melting point: 168 °C

SMILES: CCCOC(=S)NC[C@H]1CN(c2ccc(N3CCOC3=O)cc2)C(=O)O1 [Example 133]
melting point: 176 °C

SMILES: O=C1OCCN1c1ccc(N2C[C@H](CNC(=S)OCC(F)(F)F)OC2=O)cc1 [Example 134]
melting point: 181 °C

SMILES: O=C1OCCN1c1ccc(N2C[C@H](CNC(=S)OCCO)OC2=O)cc1 [Example 135]
melting point: 141 °C

SMILES: COCCOC(=S)NC[C@H]1CN(c2ccc(N3CCOC3=O)cc2)C(=O)O1 [Example 136]
melting point: 149 °C

SMILES: C=CCOC(=S)NC[C@H]1CN(c2ccc(N3CCOC3=O)cc2)C(=O)O1 [Example 137]
melting point: 150 °C

SMILES: CC(C)OC(=S)NC[C@H]1CN(c2ccc(N3CCOC3=O)cc2)C(=O)O1 [Example 138]
melting point: 140 °C

SMILES: COC(=S)NC[C@H]1CN(c2ccc(-n3c(=O)oc4ccccc43)cc2)C(=O)O1 [Example 139]
melting point: 141 °C

SMILES: CCOC(=S)NC[C@H]1CN(c2ccc(-n3c(=O)oc4ccccc43)cc2)C(=O)O1 [Example 140]
melting point: 147 °C

SMILES: COC(=S)NC[C@H]1CN(c2ccc(N3CCN(C)C3=O)cc2)C(=O)O1 [Example 142]
melting point: 209 °C

SMILES: COC(=S)NC[C@H]1CN(c2ccc(N3CC(=O)N(C)C3)cc2)C(=O)O1 [Example 143]
melting point: 205 °C

SMILES: COC(=S)NC[C@H]1CN(c2ccc(N3CCN(Cc4ccccc4)C3=O)cc2)C(=O)O1 [Example 145]
melting point: 170 °C

SMILES: CCOC(=S)NC[C@H]1CN(c2ccc(N3CCN(Cc4ccccc4)C3=O)cc2)C(=O)O1 [Example 146]
melting point: 160 °C

SMILES: COC(=S)NC[C@H]1CN(c2ccc(N3CCN(c4ccccc4)C3=O)c(F)c2)C(=O)O1 [Example 147]
melting point: 174 °C

SMILES: CCOC(=S)NC[C@H]1CN(c2ccc(N3CCN(c4ccccc4)C3=O)c(F)c2)C(=O)O1 [Example 148]
melting point: 195 °C

SMILES: COC(=S)NC[C@H]1CN(c2ccc(N3CCN(c4ccc(F)cc4)C3=O)c(F)c2)C(=O)O1 [Example 149]
melting point: 208 °C

SMILES: CCOC(=S)NC[C@H]1CN(c2ccc(N3CCN(c4ccc(F)cc4)C3=O)c(F)c2)C(=O)O1 [Example 150]
melting point: 215 °C

SMILES: CC(C)OC(=S)NC[C@H]1CN(c2ccc(N3CCN(c4ccc(F)cc4)C3=O)c(F)c2)C(=O)O1 [Example 151]
melting point: 220 °C

SMILES: CN(C)CCOC(=S)NC[C@H]1CN(c2ccc(N3CCOC3=O)cc2)C(=O)O1 [Example 152]
melting point: 161 °C
